In patent US20080269266A1, “NOVEL COMPOUNDS 747” (ASTRAZENECA AB, priority 2007, published 2008):

What was measured:
[1] = target: T1, human cytochrome P450 (CYP) 2C19 (Homo sapiens, UniProt P33261); assay: Cytochrome P450 Inhibition Assay 2C19; format: in vitro ADME; details: read-out: IC50 range, CYP 2C19
T1 construct: made in house; host or cells: yeast cell lines (microsomal fractions)
Experimental: The inhibitory potential (IC50) of test compounds against 5 human cytochrome P450 (CYP) isoforms (1A2, 2C9, 2C19, 3A4 and 2D6) was assessed using an automated fluorescent end point in vitro assay modified from Crespi (Crespi and Stresser, 2000). Microsomal subcellular fractions prepared from Yeast cell lines expressing each human CYP isoform were used as an enzyme source in this assay. The activity of the 5 major human CYPs was determined from the biotransformation of a number of coumarin substrates to fluorescent metabolites, in the presence of NADPH. […] Stock solutions of each CYP, with its respective substrate, were prepared in phosphate buffer pH7.4 (see Table 1) and 178 μl was added to the well of a black solid, flat bottom, 300 μl 96 well is microtitre plate (Corning Costar). […] After pre-incubating at 37° C. for 5 min the reactions were started with addition of NADPH (20 μl, concentration shown in Table 1). The final solvent content in each incubation was <=2% (1% from the test compound and a maximum of 1% from the substrate). The appropriate solvent controls and substrate blanks were included in each experiment to assess control activity and identify any inherent fluorescence due to the test compounds. In addition, known inhibitors of each CYP were included as positive controls (see Table 3 for inhibitor concentrations and expected IC50 ranges). The reactions were stopped at defined timepoints (see Table 1) by quenching with 100 μl of solvent (acetonitrile:0.5M Tris buffer 80:20 v/v). The plates were read on a fluorimeter (Spectrafluor Plus) at the appropriate excitation and emission wavelengths (listed in Table 2) and the percent activity, corrected for control, was plotted against the test compound concentration.

[2] = Solubility in 0.1 M phosphate buffer pH 7.4; format: physicochemical; details: pH 7.4, 24 h, 25° C.
Experimental: Solubility values are determined by agitation of compounds in 0.1 M phosphate buffer at pH 7.4 for 24 h at 25° C. The supernatant is separated from undissolved material by double centrifugation and subsequently analyzed and quantified against a standard of known concentration in DMSO using generic HPLC-UV methodology coupled with mass spectral peak identification (J. Med. Chem., 2006, 49(23), 6672-6682).

T1 sequence (P33261 whole entry): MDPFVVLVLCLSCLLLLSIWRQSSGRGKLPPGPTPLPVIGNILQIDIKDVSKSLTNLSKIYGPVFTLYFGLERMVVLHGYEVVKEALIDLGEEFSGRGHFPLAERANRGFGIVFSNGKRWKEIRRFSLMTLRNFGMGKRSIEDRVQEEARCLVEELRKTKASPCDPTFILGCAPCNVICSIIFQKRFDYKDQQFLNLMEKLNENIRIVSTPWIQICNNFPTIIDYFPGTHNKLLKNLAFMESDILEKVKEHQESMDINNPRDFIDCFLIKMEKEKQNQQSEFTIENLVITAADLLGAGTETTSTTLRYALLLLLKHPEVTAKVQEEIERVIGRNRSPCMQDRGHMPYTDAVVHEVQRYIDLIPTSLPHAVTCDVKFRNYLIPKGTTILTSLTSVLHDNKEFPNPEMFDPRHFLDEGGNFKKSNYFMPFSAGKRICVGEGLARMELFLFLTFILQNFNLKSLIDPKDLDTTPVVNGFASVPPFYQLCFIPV

IC50 [1] [µM] | Solubility [2] | Structure (SMILES)
1.5 to 4.6 |  | COc1ccc2[nH]c([S+]([O-])Cc3ncc(C)c(OC)c3C)nc2c1 (centres unmarked) [Omeprazole]
 | around 18 μM | COc1cc(Nc2cc(C)n[nH]2)nc(N2CCC[C@H]2c2cc(-c3ncccn3)no2)n1 [mixture of Forms 1 and 3, (S)-6-Methoxy-2-{2-[3-(pyrimid-2-yl)isoxazol-5-yl]pyrrolidin-1-yl}-4-(5-methyl-1H-pyrazol-3-ylamino)pyrimidine]
